Assay results from ChEMBL document CHEMBL6083249, “The journey of p38 MAP kinase inhibitors: From bench to bedside in treating inflammatory diseases” (Eur J Med Chem, 2024).
Each block holds one molecule with its values, some of them ahead of it.

Tests used:
[1] = target: Protein kinase C beta type (Homo sapiens, UniProt P05771); test: Inhibition of PKCbeta2 (unknown origin)
[2] = target: Protein kinase C alpha type (Homo sapiens, UniProt P17252); test: Inhibition of PKCalpha (unknown origin)
[3] = Cmax in ICR mouse at 5 mg/kg, iv by LC-MS/MS analysis; assay type: ADME, organism-based; settings: in vivo
[4] = Clearance in ICR mouse at 2 mg/kg, iv; assay type: ADME, organism-based; settings: in vivo
[5] = Cmax in Wistar rat at 3 mg/kg, iv; assay type: ADME, organism-based; settings: in vivo
[6] = MRT in ICR mouse at 5 mg/kg, iv by LC-MS/MS analysis; assay type: ADME, organism-based; settings: in vivo
[7] = Volume of distribution at steady state in Wistar rat at 3 mg/kg, iv; assay type: ADME, organism-based; settings: in vivo, read-out: Vdss
[8] = Clearance in Wistar rat at 3 mg/kg, iv; assay type: ADME, organism-based; settings: in vivo
[9] = Tmax in ICR mouse at 5 mg/kg, iv; assay type: ADME, organism-based; settings: in vivo
[10] = Oral bioavailability in rat; assay type: ADME, organism-based; settings: in vivo
[11] = Volume of distribution at steady state in ICR mouse at 2 mg/kg, iv; assay type: ADME, organism-based; settings: in vivo, read-out: Vdss
[12] = Oral bioavailability in ICR mouse; assay type: ADME, organism-based; settings: in vivo
[13] = target: 3',5'-cyclic-AMP phosphodiesterase 4B (Homo sapiens, UniProt Q07343); test: Inhibition of PDE4B1 (unknown origin)
[14] = AUC (0 to t) in Sprague-Dawley rat at 50 mg/kg, po by LC-MS analysis; assay type: ADME, organism-based; settings: in vivo
[15] = Plasma protein binding in Sprague-Dawley rat assessed as unbound fraction at 1 uM incubated for 6 hrs by LC-MS/MS analysis; assay type: ADME, cell-free
[16] = AUC (0 to infinity) in Sprague-Dawley rat at 30 mg/kg, po by LC-MS/MS analysis; assay type: ADME, organism-based; settings: in vivo
[17] = target: Cyclin-dependent kinase 18 (Homo sapiens) (UniProt Q07002); test: Inhibition of CDK18 (unknown origin) at 10 uM relative to control
[18] = Half life in Sprague-Dawley rat at 30 mg/kg, po by LC-MS/MS analysis; assay type: ADME, organism-based; settings: in vivo
[19] = target: CDK7/Cyclin H/MNAT1 (Homo sapiens) (UniProt P51946+P50613+P51948); test: Inhibition of CDK7/cyclinH/MAT1 (unknown origin) at 10 uM in presence of ATP relative to control; assay type: protein-complex assay
[20] = AUC (0 to infinity) in Sprague-Dawley rat at 10 mg/kg, po by LC-MS/MS analysis; assay type: ADME, organism-based; settings: in vivo
[21] = Plasma protein binding in cynomolgus monkey assessed as unbound fraction at 1 uM incubated for 6 hrs by LC-MS/MS analysis; assay type: ADME, cell-free, Macaca fascicularis
[22] = target: Mitogen-activated protein kinase 14 (Homo sapiens) (UniProt Q16539); test: Inhibition of p38alpha (unknown origin) at 10 uM in presence of ATP relative to control
[23] = target: 3',5'-cyclic-AMP phosphodiesterase 4C (Homo sapiens, UniProt Q08493); test: Inhibition of PDE4C (unknown origin)
[24] = AUC (0 to t) in Sprague-Dawley rat at 20 mg/kg, po by LC-MS analysis; assay type: ADME, organism-based; settings: in vivo
[25] = Half life in Sprague-Dawley rat at 10 mg/kg, po by LC-MS/MS analysis; assay type: ADME, organism-based; settings: in vivo
[26] = Plasma protein binding in cynomolgus monkey assessed as unbound fraction at 10 uM incubated for 6 hrs by LC-MS/MS analysis; assay type: ADME, cell-free, Macaca fascicularis
[27] = Plasma protein binding in Sprague-Dawley rat assessed as unbound fraction at 10 uM incubated for 6 hrs by LC-MS/MS analysis; assay type: ADME, cell-free
[28] = Plasma protein binding in human assessed as unbound fraction at 1 uM incubated for 6 hrs by LC-MS/MS analysis; assay type: ADME, cell-free
[29] = Plasma protein binding in Sprague-Dawley rat assessed as unbound fraction at 30 uM incubated for 6 hrs by LC-MS/MS analysis; assay type: ADME, cell-free
[30] = target: Casein kinase I isoform alpha (Homo sapiens) (UniProt P48729); test: Inhibition of CK1 alpha (unknown origin) at 10 uM relative ton control
[31] = species: Homo sapiens; test: Inhibition of P70S6K (unknown origin) in presence of 10 uM ATP by Z'-LYTE biochemical assay relative to control
[32] = AUC (0 to infinity) in Sprague-Dawley rat at 50 mg/kg, po by LC-MS/MS analysis; assay type: ADME, organism-based; settings: in vivo
[33] = Cmax in Sprague-Dawley rat at 50 mg/kg, po by LC-MS analysis; assay type: ADME, organism-based; settings: in vivo
[34] = Plasma protein binding in cynomolgus monkey assessed as unbound fraction at 30 uM incubated for 6 hrs by LC-MS/MS analysis; assay type: ADME, cell-free, Macaca fascicularis
[35] = Plasma protein binding in human assessed as unbound fraction at 30 uM incubated for 6 hrs by LC-MS/MS analysis; assay type: ADME, cell-free
[36] = Tmax in Sprague-Dawley rat at 30 mg/kg, po by LC-MS analysis; assay type: ADME, organism-based; settings: in vivo
[37] = AUC (0 to t) in Sprague-Dawley rat at 30 mg/kg, po by LC-MS analysis; assay type: ADME, organism-based; settings: in vivo
[38] = Cmax in Sprague-Dawley rat at 20 mg/kg, po measured for 24 hrs by LC-MS/MS analysis; assay type: ADME, organism-based; settings: in vivo
[39] = species: Homo sapiens; test: Inhibition of MKK6 (unknown origin) at 10 uM relative to control
[40] = Half life in Sprague-Dawley rat at 20 mg/kg, po by LC-MS/MS analysis; assay type: ADME, organism-based; settings: in vivo
[41] = Half life in Sprague-Dawley rat at 50 mg/kg, po by LC-MS/MS analysis; assay type: ADME, organism-based; settings: in vivo
[42] = Cmax in Sprague-Dawley rat at 10 mg/kg, po by LC-MS analysis; assay type: ADME, organism-based; settings: in vivo
[43] = Plasma protein binding in human assessed as unbound fraction at 10 uM incubated for 6 hrs by LC-MS/MS analysis; assay type: ADME, cell-free
[44] = Tmax in Sprague-Dawley rat at 50 mg/kg, po by LC-MS analysis; assay type: ADME, organism-based; settings: in vivo
[45] = Tmax in Sprague-Dawley rat at 20 mg/kg, po by LC-MS analysis; assay type: ADME, organism-based; settings: in vivo
[46] = AUC (0 to t) in Beagle dog at 40 mg/kg, po by LC-MS/MS analysis; assay type: ADME, organism-based, Canis lupus familiaris; settings: in vivo
[47] = AUC (0 to infinity) in Sprague-Dawley rat at 20 mg/kg, po measured for 24 hrs by LC-MS/MS analysis; assay type: ADME, organism-based; settings: in vivo
[48] = AUC (0 to infinity) in Sprague-Dawley rat at 20 mg/kg, po by LC-MS/MS analysis; assay type: ADME, organism-based; settings: in vivo
[49] = Tmax in Sprague-Dawley rat at 10 mg/kg, po by LC-MS analysis; assay type: ADME, organism-based; settings: in vivo
[50] = AUC (0 to t) in Sprague-Dawley rat at 10 mg/kg, po by LC-MS analysis; assay type: ADME, organism-based; settings: in vivo
[51] = test system: RAW264.7; test: Anti-inflammatory activity in LPS-induced mouse RAW264.7 cells assessed as inhibition of IL-6 production; assay type: functional, cell-based
[52] = Clearance in Sprague-Dawley rat at 10 mg/kg, iv by HPLC-MS analysis; assay type: ADME, organism-based; settings: in vivo
[53] = Volume of distribution at steady state in Sprague-Dawley rat at 10 mg/kg, iv measured for 24 hrs by LC-MS/MS analysis; assay type: ADME, organism-based; settings: in vivo, read-out: Vdss
[54] = Tmax in Wistar rat at 10 mg/kg, po by LC-MS/MS analysis; assay type: ADME, organism-based; settings: in vivo
[55] = AUC in Sprague-Dawley rat at 10 mg/kg, po measured for 24 hrs by LC-MS/MS analysis; assay type: ADME, organism-based; settings: in vivo
[56] = Oral bioavailability in Sprague-Dawley rat at 10 mg/kg by LC-MS analysis; assay type: ADME, organism-based; settings: in vivo
[57] = Cmax in Wistar rat at 10 mg/kg, po by LC-MS/MS analysis; assay type: ADME, organism-based; settings: in vivo
[58] = test system: THP-1; test: Antiinflammatory activity against human THP-1 cells assessed as inhibition of LPS-induced TNF-alpha production; assay type: functional, cell-based
[59] = test system: THP-1; test: Anti-inflammatory activity in human THP-1 cells assessed as inhibition of IL-1beta protein expression incubated for 24 hrs by Western blot analysis; assay type: functional, cell-based; settings: THP-1, 24 h
[60] = Clearance in dog; assay type: ADME, Canis lupus familiaris; settings: in vivo
[61] = Half life in Beagle dog at 5 mg/kg, po by LC-MS/MS analysis; assay type: ADME, organism-based, Canis lupus familiaris; settings: in vivo
[62] = Clearance in rat; assay type: ADME; settings: in vivo

Mitogen-activated protein kinase 14 (Homo sapiens), sequence (Q16539 whole entry): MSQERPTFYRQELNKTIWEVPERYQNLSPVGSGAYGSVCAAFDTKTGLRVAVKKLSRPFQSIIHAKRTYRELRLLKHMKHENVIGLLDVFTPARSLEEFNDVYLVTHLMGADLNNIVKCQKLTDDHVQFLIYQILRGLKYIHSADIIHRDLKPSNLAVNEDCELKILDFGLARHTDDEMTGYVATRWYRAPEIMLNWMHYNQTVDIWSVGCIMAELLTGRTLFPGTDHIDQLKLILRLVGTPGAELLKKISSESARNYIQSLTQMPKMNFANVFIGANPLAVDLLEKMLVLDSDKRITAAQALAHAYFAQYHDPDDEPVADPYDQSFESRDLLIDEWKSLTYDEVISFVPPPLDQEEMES
3',5'-cyclic-AMP phosphodiesterase 4B, sequence (Q07343 whole entry): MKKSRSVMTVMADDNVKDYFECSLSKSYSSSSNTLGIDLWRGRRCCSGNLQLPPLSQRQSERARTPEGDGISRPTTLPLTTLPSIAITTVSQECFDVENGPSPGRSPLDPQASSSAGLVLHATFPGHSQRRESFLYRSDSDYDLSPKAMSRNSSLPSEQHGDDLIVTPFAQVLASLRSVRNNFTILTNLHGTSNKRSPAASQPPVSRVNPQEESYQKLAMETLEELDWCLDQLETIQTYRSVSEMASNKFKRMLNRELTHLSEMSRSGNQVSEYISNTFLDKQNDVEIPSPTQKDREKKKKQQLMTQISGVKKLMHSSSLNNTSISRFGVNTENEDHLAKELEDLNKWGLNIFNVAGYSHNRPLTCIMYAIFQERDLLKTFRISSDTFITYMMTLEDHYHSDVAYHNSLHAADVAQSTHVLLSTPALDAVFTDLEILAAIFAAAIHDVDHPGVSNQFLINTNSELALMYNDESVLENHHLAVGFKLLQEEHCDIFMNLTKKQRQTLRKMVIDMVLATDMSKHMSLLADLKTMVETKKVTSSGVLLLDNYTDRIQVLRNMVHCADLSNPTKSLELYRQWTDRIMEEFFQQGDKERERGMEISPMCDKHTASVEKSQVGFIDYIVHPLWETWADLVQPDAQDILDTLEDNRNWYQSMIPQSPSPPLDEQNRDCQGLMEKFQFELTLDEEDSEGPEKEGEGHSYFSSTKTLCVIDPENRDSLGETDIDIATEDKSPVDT
Protein kinase C beta type, sequence (P05771 whole entry): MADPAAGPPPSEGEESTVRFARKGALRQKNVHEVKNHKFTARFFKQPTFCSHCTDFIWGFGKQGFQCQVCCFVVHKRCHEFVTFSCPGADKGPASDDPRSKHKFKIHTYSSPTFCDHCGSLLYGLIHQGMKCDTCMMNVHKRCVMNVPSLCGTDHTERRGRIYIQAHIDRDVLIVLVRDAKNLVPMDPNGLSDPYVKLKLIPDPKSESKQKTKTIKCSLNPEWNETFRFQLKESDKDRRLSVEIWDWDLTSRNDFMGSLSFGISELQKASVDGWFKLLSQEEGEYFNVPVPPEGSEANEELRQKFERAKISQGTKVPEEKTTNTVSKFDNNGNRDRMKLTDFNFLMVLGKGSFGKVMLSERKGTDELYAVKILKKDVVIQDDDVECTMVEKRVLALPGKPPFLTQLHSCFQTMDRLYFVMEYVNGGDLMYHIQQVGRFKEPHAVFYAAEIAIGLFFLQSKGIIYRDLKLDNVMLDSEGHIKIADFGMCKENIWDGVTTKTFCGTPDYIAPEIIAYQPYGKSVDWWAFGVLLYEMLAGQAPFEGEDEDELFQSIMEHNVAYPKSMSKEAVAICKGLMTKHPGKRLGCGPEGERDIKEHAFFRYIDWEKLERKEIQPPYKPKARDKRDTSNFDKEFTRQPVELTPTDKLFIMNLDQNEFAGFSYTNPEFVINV
Cyclin-dependent kinase 18 (Homo sapiens), sequence (Q07002 whole entry): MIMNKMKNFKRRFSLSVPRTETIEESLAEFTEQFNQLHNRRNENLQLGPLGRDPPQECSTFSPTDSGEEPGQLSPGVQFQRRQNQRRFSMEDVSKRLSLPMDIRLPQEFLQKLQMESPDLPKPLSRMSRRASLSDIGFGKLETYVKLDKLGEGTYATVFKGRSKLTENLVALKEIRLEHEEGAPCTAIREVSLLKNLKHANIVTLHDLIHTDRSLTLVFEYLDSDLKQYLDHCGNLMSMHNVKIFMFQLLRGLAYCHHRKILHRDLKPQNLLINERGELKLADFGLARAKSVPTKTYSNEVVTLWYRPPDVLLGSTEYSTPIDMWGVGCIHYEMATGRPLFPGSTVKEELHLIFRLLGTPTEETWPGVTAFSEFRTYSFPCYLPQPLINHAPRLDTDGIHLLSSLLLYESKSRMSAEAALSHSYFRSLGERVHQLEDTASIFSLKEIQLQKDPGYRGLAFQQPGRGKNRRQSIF
Casein kinase I isoform alpha (Homo sapiens), sequence (P48729 2-337 limits assumed): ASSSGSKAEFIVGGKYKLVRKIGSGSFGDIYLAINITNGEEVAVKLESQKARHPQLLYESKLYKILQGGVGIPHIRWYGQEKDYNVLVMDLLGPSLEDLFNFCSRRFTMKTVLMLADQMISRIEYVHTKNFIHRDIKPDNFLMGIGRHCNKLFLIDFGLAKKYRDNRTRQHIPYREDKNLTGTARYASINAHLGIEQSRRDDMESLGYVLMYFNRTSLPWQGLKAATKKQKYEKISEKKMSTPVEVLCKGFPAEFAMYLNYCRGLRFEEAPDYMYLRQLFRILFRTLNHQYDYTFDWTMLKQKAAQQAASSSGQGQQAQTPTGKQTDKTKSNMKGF
3',5'-cyclic-AMP phosphodiesterase 4C, sequence (Q08493 whole entry): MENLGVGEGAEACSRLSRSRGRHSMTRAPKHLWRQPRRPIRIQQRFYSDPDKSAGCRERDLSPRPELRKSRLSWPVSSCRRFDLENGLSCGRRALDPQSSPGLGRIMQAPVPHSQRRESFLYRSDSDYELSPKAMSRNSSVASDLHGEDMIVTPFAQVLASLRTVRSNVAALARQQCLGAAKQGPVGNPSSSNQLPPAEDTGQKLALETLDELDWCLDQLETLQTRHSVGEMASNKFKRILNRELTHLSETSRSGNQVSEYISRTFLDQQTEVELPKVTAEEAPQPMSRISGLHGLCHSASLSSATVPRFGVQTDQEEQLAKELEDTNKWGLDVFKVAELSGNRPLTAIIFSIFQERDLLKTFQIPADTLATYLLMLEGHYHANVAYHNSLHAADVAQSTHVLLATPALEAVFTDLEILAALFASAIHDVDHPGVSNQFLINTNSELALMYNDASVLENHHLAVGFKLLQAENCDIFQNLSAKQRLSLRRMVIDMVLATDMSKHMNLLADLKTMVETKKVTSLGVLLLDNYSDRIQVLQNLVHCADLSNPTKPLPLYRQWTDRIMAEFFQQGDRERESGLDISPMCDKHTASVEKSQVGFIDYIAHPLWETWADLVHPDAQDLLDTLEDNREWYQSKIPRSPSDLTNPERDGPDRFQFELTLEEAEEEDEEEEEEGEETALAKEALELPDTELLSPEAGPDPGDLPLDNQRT

Structure (SMILES): C[S+]([O-])c1ccc(-c2nc(-c3ccncc3)c(-c3ccc(F)cc3)[nH]2)cc1 (configuration not stated) [SB-203580]
IC50 [1]: > 50 µM | IC50 [2]: > 100 µM

Structure (SMILES): Cn1c(=O)c(Oc2ccc(F)cc2F)cc2cnc(NC3CCOCC3)nc21 [R-1487]
EC50 [51]: 0.01 µM | clearance [52]: 20.7 mL/min/kg | Vd [53]: 1.94 L/kg | Tmax [54]: 2 h | AUC [55]: 2.35 µg/h/mL | bioavailability [56]: 29.3% | Cmax [57]: 650 ng/mL | IC50 [58]: 0.8 µM | IC50 [59]: 0.17 µM

Structure (SMILES): O=C(CO)N1CCC(c2[nH]nc(-c3ccc(Cl)cc3)c2-c2ccncn2)CC1 [SD-0006]
clearance [60]: 2.92 mL/min/kg | half-life [61]: 4.48 h | clearance [62]: 4.86 mL/min/kg

Continued, values first:

Cmax [3]: 15300 nM | clearance [4]: 4.4 mL/min/kg | Cmax [5]: 7000 nM | MRT [6]: 3.3 h | Vd [7]: 1.1 L/kg | clearance [8]: 5.4 mL/min/kg | Tmax [9]: 1 h | bioavailability [10]: 60% | Vd [11]: 0.9 L/kg | bioavailability [12]: 90%
Structure (SMILES): CCCNC(=O)c1cn2ncnc(Nc3cc(C(=O)NC4CC4)ccc3C)c2c1C [BMS-582949]

IC50 [13]: 1.9 µM | AUCt [14]: 3.4 µM·h | fraction unbound at 6 h, 1 µM [15]: 0.863 | AUC [16]: 3.05 µM·h | inhibition [17]: 94% | half-life [18]: 3.4 h | inhibition [19]: 54% | AUC [20]: 1.04 µM·h | fraction unbound at 6 h, 1 µM [21]: 0.667 | inhibition [22]: 35% | IC50 [23]: 6.4 µM | AUCt [24]: 0.31 µM·h | half-life [25]: 2.7 h | fraction unbound at 6 h, 10 µM [26]: 0.611 | fraction unbound at 6 h, 10 µM [27]: 0.631 | fraction unbound at 6 h, 1 µM [28]: 0.9 | fraction unbound at 6 h, 30 µM [29]: 0.754 | inhibition [30]: 97% | inhibition [31]: 32% | AUC [32]: 3.58 µM·h | Cmax [33]: 590 nM | fraction unbound at 6 h, 30 µM [34]: 0.583 | fraction unbound at 6 h, 30 µM [35]: 0.781 | Tmax [36]: 2.3 h | AUCt [37]: 0.42 µM·h | Cmax [38]: 314 nM | inhibition [39]: 62% | half-life [40]: 3.3 h | half-life [41]: 3.2 h | Cmax [42]: 200 nM | fraction unbound at 6 h, 10 µM [43]: 0.806 | Tmax [44]: 1.5 h | Tmax [45]: 2.9 h | AUCt [46]: 93.4 µM·h | AUC [47]: 2.24 µM·h | AUC [48]: 2.24 µM·h | Tmax [49]: 2.2 h | AUCt [50]: 0.95 µM·h
Structure (SMILES): CC(=O)Nc1cc(-c2c(-c3ccc(F)cc3)nc([S+](C)[O-])n2C)ccn1 (configuration not stated)
